This is an account of results in patent US12686665B2, “Bicyclic fused ring derivative or salt thereof and pharmaceutical composition comprising same” (YUHAN CORPORATION, priority 2021, dated 2026).

Structures can show the parent of a compound that is named as a salt.

What all share (format): biochemical
Assay [1] addresses T1, recombinant human MAO-B (monoamine oxidase-B) (Homo sapiens, UniProt P27338).
T1 construct: purchased Sigma-Aldrich
T1 sequence (P27338 1-520): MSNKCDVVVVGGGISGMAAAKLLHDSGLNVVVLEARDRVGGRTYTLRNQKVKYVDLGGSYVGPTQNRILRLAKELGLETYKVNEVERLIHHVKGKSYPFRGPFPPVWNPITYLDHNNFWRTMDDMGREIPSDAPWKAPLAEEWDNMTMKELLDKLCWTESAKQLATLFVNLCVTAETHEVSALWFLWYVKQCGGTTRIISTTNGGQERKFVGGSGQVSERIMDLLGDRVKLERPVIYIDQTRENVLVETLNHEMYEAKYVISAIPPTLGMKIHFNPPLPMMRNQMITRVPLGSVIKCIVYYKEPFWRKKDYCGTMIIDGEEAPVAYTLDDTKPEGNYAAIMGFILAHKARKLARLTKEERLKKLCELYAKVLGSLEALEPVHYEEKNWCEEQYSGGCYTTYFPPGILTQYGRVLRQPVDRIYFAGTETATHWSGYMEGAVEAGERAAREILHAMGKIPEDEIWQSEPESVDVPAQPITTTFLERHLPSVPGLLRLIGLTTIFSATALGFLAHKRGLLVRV
Kind of assay: Amplex Red HRP-coupled amine oxidase assay, recombinant human MAO-B. The note with it: 1 mM benzylamine substrate, read-out: Inhibitory activity (IC50, nM) MAO-B. As for the experimental part: (§1) The activities of the compounds according to the present invention against recombinant human Lysyl Oxidase-Like 2 (recombinant human LOXL2, R&D systems) were evaluated by measuring the levels of hydrogen peroxide in the HRP (horseradish peroxidase) coupled reactions, with the Amplex Red Hydrogen Peroxide Assay Kit (Molecular Probes, Invitrogen, USA). The tests were carried out at 37° C., and putrescine was used as a substrate. In the HRP coupling reaction, the oxidation of 10-acetyl-3,7-dihydroxyphenoxazine (Amplex Red reagent) by hydrogen peroxide generates a fluorescent product, i.e., resorufin. Briefly, the test compounds were dissolved in dimethyl sulfoxide (DMSO) at a concentration of 20 mM. Dose-response measurements were carried out by serial dilutions in DMSO to generate a six-point curve. The upper concentration was adjusted according to the potency of the compound, and then diluted with the reaction buffer to obtain a final DMSO concentration of 1%. Purified human LOXL2 in 50 mM sodium phosphate buffer (pH7.4) was added to each well of a 96 well black plate. The test compounds dissolved in DMSO were incubated with the human LOXL2 enzyme at 37° C. for 60 minutes. After the incubation for 60 minutes, a reaction mixture containing 400 μM Amplex Red reagent, 30 mM putrescine, and 2 U/mL HRP in 50 mM sodium phosphate buffer (pH 7.4) was added to each well. Fluorescence was measured with a microplate reader (Flexstation3, Molecular Devices), under the conditions of excitation at 530 nm and emission at 590 nm, 1 hour after the addition of the mixture. Inhibition by each compound was measured as % reduction in signal, compared to the control without an inhibitor (diluted DMSO only). The data were fixed to a four-variable logistic model, and […] values were calculated using the GraphPad Prism program.
(§2) And, the activities of the compounds according to the present invention against recombinant human MAO-A (monoamine oxidase-A, Sigma-Aldrich) and recombinant human MAO-B (monoamine oxidase-B, Sigma-Aldrich) were evaluated in a similar manner to the activity evaluation method for recombinant human LOXL2, using 0.5 mM tyramine and 1 mM benzylamine as a substrate, respectively. In addition, the activities of the compounds according to the present invention against recombinant human DAO (diamine oxidase, R&D systems) were evaluated in a similar manner to the activity evaluation method for recombinant human LOXL2, using 1 mM putrescine as a substrate.

Assay [2] has as its target T2, recombinant human DAO (diamine oxidase) (Homo sapiens, UniProt P19801).
T2 construct: purchased R&D systems
T2 sequence (P19801 20-751): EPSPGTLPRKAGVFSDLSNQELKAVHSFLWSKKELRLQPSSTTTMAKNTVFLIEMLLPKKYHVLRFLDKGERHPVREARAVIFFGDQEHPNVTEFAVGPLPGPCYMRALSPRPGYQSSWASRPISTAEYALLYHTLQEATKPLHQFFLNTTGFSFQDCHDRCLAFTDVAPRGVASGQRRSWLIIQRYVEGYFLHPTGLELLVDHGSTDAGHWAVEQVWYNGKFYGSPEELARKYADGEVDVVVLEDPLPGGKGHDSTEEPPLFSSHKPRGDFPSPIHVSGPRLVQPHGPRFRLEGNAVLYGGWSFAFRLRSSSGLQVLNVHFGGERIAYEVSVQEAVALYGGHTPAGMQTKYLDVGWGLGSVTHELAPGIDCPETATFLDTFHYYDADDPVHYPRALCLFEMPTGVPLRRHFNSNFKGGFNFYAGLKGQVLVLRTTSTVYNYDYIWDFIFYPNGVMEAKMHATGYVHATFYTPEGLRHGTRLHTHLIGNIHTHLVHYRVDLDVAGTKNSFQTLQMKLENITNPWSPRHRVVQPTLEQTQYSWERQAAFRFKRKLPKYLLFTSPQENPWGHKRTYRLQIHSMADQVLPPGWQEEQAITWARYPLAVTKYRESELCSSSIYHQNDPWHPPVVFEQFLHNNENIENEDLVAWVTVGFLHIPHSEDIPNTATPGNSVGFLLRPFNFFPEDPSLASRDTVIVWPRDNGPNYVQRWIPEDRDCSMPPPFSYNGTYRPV
Kind of assay: Amplex Red HRP-coupled amine oxidase assay, recombinant human DAO. The note with it: 1 mM putrescine substrate, read-out: Inhibitory activity (IC50, nM) DAO. In a few lines: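 Enzyme preincubated 60 min at 37 °C with compound (six-point curve, 1% DMSO final) in 50 mM sodium phosphate pH 7.4, then Amplex Red 400 μM and HRP 2 U/mL added with substrate: MAO-A 0.5 mM tyramine, MAO-B 1 mM benzylamine, DAO 1 mM putrescine. Resorufin fluorescence read after 1 h; IC50 by four-parameter logistic fit.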

Assay [3] deals with T3, recombinant human Lysyl Oxidase-Like 2 (LOXL2) (Homo sapiens, UniProt Q9Y4K0).
T3 construct: purchased R&D systems
T3 sequence (Q9Y4K0 26-774): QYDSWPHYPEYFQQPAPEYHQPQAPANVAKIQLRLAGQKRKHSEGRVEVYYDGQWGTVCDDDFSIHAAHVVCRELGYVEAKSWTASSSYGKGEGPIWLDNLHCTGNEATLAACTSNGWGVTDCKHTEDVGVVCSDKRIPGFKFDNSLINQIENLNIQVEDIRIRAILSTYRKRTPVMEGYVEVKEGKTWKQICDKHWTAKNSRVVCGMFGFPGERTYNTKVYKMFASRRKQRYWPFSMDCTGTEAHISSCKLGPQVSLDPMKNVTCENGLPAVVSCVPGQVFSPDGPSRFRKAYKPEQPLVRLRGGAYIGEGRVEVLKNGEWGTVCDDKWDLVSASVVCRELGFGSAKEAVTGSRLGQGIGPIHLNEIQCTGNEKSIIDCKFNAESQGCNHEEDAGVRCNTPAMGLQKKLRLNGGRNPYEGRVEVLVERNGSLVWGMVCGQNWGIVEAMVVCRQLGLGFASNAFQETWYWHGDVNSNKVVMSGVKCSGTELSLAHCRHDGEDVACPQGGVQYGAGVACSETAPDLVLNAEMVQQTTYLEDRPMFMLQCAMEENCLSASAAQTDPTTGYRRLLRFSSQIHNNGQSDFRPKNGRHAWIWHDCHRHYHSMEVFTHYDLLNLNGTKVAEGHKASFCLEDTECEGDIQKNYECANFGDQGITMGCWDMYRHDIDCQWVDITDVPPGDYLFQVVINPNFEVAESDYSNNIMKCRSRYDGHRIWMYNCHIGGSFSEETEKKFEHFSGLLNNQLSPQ
Nature of the assay: Amplex Red HRP-coupled amine oxidase assay, recombinant human LOXL2. The note with it: 60 min incubation with enzyme at 37° C., putrescine substrate, read-out: Inhibitory activity (IC50, nM) human LOXL2. The gist of the method: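 Putrescine substrate (30 mM) in 50 mM sodium phosphate pH 7.4, 37 °C; compounds preincubated 60 min with enzyme, 1% DMSO final, six-point curves. H2O2 detected via 400 μM Amplex Red/2 U/mL HRP, fluorescence (ex 530/em 590 nm) after 1 h; IC50 from four-parameter logistic fit of % signal reduction.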

The target of assay [4] is T4, recombinant human MAO-A (monoamine oxidase-A) (Homo sapiens, UniProt P21397).
T4 construct: purchased Sigma-Aldrich
T4 sequence (P21397 1-527): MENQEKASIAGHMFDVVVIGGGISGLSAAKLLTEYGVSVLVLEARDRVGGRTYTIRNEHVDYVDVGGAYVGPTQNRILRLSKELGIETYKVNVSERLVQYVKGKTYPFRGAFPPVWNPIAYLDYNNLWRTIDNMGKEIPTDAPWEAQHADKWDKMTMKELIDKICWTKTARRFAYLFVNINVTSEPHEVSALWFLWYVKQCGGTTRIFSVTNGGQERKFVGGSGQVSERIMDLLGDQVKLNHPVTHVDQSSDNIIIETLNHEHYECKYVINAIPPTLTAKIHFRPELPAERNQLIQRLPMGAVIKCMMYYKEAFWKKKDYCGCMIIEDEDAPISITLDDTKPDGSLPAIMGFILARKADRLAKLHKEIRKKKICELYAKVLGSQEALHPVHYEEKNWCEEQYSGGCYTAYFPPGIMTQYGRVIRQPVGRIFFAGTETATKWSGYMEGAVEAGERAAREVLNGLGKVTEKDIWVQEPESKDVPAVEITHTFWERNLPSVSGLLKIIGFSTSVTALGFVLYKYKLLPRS
Kind of assay: Amplex Red HRP-coupled amine oxidase assay, recombinant human MAO-A. To be noted: 0.5 mM tyramine substrate, read-out: Inhibitory activity (IC50, nM) MAO-A. As for the experimental part:
as §1, §2

One may read the IC50 as the concentration at which inhibition is half-maximal. On to `NC/C=C(\F)Cn1cnc2c(-c3cccc(S(=O)(=O)NC4CC4)c3)cc(F)cc21` [Example 9, (Z)-3-(1-(4-amino-2-fluorobut-2-en-1-yl)-6-fluoro-1H-benzo[d]imidazol-4-yl)-N-cyclopropylbenzenesulfonamide hydrochloride], for which the IC50 in assay [1] was greater than 100000 nM; in assay [2], 3100 nM; in assay [3] it was 39 nM; in assay [4], 48600 nM.
In the case of `CCN(CC)S(=O)(=O)c1ccc(OC)c(-c2cc(C(=O)OC)cc3c2nnn3C/C(F)=C/CN)c1` [Example 119, methyl (Z)-1-(4-amino-2-fluorobut-2-en-1-yl)-4-(5-(N,N-diethylsulfamoyl)-2-methoxyphenyl)-1H-benzo[d][1,2,3]triazol-6-carboxylate hydrochloride], the IC50 in assay [1] was greater than 100000 nM; in assay [2], 14500 nM; in assay [3], 47.3 nM; in assay [4], greater than 100000 nM.
For `COC(=O)c1cc(-c2ccc(OC)c(S(=O)(=O)N(C)C)c2)c2ncn(C/C(F)=C/CN)c2c1` [Example 21, methyl (Z)-1-(4-amino-2-fluorobut-2-en-1-yl)-4-(3-(N,N-dimethylsulfamoyl)-4-methoxyphenyl)-1H-benzo[d]imidazol-6-carboxylate hydrochloride], the IC50 in assay [1] was greater than 100000 nM; in assay [2], 380 nM; in assay [3], 22.7 nM; in assay [4], 12200 nM.
As for `COC(=O)c1cc(-c2cc(S(=O)(=O)C(F)(F)F)ccc2C)c2ncn(C/C(F)=C/CN)c2c1` [Example 35, methyl (Z)-1-(4-amino-2-fluorobut-2-en-1-yl)-4-(2-methyl-5-((trifluoromethyl)sulfonyl)phenyl)-1H-benzo[d]imidazol-6-carboxylate hydrochloride], the IC50 was greater than 100000 nM in assay [1], 47700 nM in assay [2], 67.6 nM in assay [3] and greater than 100000 nM in assay [4].
In the case of `CNS(=O)(=O)c1ccc(OC)c(-c2cc(C(=O)OC)cc3c2ncn3C/C(F)=C/CN)c1` [Example 24, methyl (Z)-1-(4-amino-2-fluorobut-2-en-1-yl)-4-(2-methoxy-5-(N-methylsulfamoyl)phenyl)-1H-benzo[d]imidazol-6-carboxylate hydrochloride], the IC50 is greater than 100000 nM in assay [1], 21800 nM in assay [2], 15.9 nM in assay [3] and greater than 100000 nM in assay [4].
For the compound `Cn1nccc1-c1cc(C(F)(F)F)cc2c1ncn2C/C(F)=C/CN` [Example 176, (Z)-3-fluoro-4-(4-(1-methyl-1H-pyrazol-5-yl)-6-(trifluoromethyl)-1H-benzo[d]imidazol-1-yl) but-2-en-1-yl-amine hydrochloride], the IC50 in assay [1] was greater than 100000 nM; in assay [2], 26700 nM; in assay [3], 92.4 nM; in assay [4], greater than 100000 nM.
Take `Cc1nc2c(-c3cccc(S(=O)(=O)N(C)C)c3)cccc2n1C/C(F)=C/CN` [Example 56, (Z)-3-(1-(4-amino-2-fluorobut-2-en-1-yl)-2-methyl-1H-benzo[d]imidazol-4-yl)-N,N-dimeth ylbenzenesulfonamide hydrochloride]: the IC50 is greater than 100000 nM in assay [1], 227 nM in assay [2], 74 nM in assay [3] and 6540 nM in assay [4].
On to `COC(=O)c1cc(-c2cccc(S(=O)(=O)N(C)C)c2)c2nc(C)n(C/C(F)=C/CN)c2c1` [Example 66, methyl (Z)-1-(4-amino-2-fluorobut-2-en-1-yl)-4-(3-(N,N-dimethylsulfamoyl)phenyl)-2-methyl-1H-benzo[d]imidazol-6-carboxylate hydrochloride], for which the IC50 is greater than 100000 nM in assay [1], 1610 nM in assay [2], 28 nM in assay [3] and 7890 nM in assay [4].
